Assay results: the supplement of paper PMC5908809

Key:
[1] = system: normal NK cells expanded with K562-aAPC; test: percent inhibition of viability; higher = more inhibition; details: 72 h, IL-2 2.5 ng/mL
Experimental: (§1)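 Drug sensitivity and resistance testing on K562-aAPC-expanded normal NK cells: 5 concentrations (10-fold steps over a 10,000-fold range), 72 h at 37 °C, viability by CellTiter-Glo normalised to DMSO and benzethonium chloride controls; DSS from the fitted curve.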

IMC-1 (IL-2 20 ng/mL) [2] = test: as above; details: 72 h
[3] = system: normal primary NK cells, pool 2 (3 donors) (IL-2 2.5 ng/mL); test: as above; details: 72 h
[4] = system: normal primary NK cells, pool 3 (3 donors) (IL-2 2.5 ng/mL); test: as above; details: 72 h
[5] = system: normal NK cells expanded with K562-aAPC; test: drug sensitivity score (DSS) (DSS units); higher = more sensitive; extreme values may be limits of the assay; details: 72 h; IL-2 2.5 ng/mL
Experimental: as §1

IMC-1 (IL-2 20 ng/mL) [6] = test: as above; details: 72 h
[7] = system: normal primary NK cells, pool 2 (3 donors) (IL-2 2.5 ng/mL); test: as above; details: 72 h
[8] = system: normal primary NK cells, pool 3 (3 donors) (IL-2 2.5 ng/mL); test: as above; details: 72 h
DERL-7 (IL-2 2.5 ng/mL) [9] = test: percent inhibition of viability; higher = more inhibition; details: 72 h
KAI3 (IL-2 2.5 ng/mL) [10] = test: as above; details: 72 h
KHYG-1 (IL-2 2.5 ng/mL) [11] = test: as above; details: 72 h
NK-92 (IL-2 2.5 ng/mL) [12] = test: as above; details: 72 h
NK-YS (IL-2 2.5 ng/mL) [13] = test: as above; details: 72 h
NKL (IL-2 2.5 ng/mL) [14] = test: as above; details: 72 h
SNK-6 (IL-2 2.5 ng/mL) [15] = test: as above; details: 72 h
YT (IL-2 2.5 ng/mL) [16] = test: as above; details: 72 h
[17] = system: normal primary NK cells, pool 1 (3 donors) (IL-2 2.5 ng/mL); test: as above; details: 72 h
[18] = system: normal primary NK cells, pool 1 (3 donors), resting (IL-2 0 ng/mL); test: as above; details: 72 h
DERL-7 (IL-2 2.5 ng/mL) [19] = test: drug sensitivity score (DSS) (DSS units); higher = more sensitive; extreme values may be limits of the assay; details: 72 h
KAI3 (IL-2 2.5 ng/mL) [20] = test: as above; details: 72 h
KHYG-1 (IL-2 2.5 ng/mL) [21] = test: as above; details: 72 h
NK-92 (IL-2 2.5 ng/mL) [22] = test: as above; details: 72 h
NK-YS (IL-2 2.5 ng/mL) [23] = test: as above; details: 72 h
NKL (IL-2 2.5 ng/mL) [24] = test: as above; details: 72 h
SNK-6 (IL-2 2.5 ng/mL) [25] = test: as above; details: 72 h
YT (IL-2 2.5 ng/mL) [26] = test: as above; details: 72 h
[27] = system: normal primary NK cells, pool 1 (3 donors) (IL-2 2.5 ng/mL); test: as above; details: 72 h
[28] = system: normal primary NK cells, pool 1 (3 donors), resting (IL-2 0 ng/mL); test: as above; details: 72 h

CCN(CC)CCCC(C)Nc1c2ccc(Cl)cc2nc2ccc(OC)cc12 (centres undefined) [Mepacrine] (max concentration tested 50000 nM)
percent inhibition of viability [%]
Details | 5 nM | 50 nM | 500 nM | 5000 nM | 50000 nM
IMC-1 (IL-2 20 ng/mL) [2] | -0.62 | -1.1 | 2.08 | 100 | 101
[1] | -2.84 | -3.46 | -4.79 | 100 | 101
[3] | -13.9 | -3.31 | 9.39 | 98 | 101
[4] | -11.7 | 0.46 | 1.96 | 98.8 | 101

Details | drug sensitivity score
IMC-1 (IL-2 20 ng/mL) [6] | 18.2
[5] | 17.6
[7] | 19.4
[8] | 18.1

CN(C)C(=O)c1cc2cnc(Nc3ccc(N4CCNCC4)cn3)nc2n1C1CCCC1 [Ribociclib] (max concentration tested 10000 nM)
percent inhibition of viability [%]
Details | 1 nM | 10 nM | 100 nM | 1000 nM | 10000 nM
IMC-1 (IL-2 20 ng/mL) [2] | -7.57 | -0.52 | -5.29 | 0.27 | 7.32
[1] | -3.33 | -2.59 | 0.08 | 20.6 | 22.7
[3] | -4.92 | -2.8 | 8.5 | 5.64 | 48.2
[4] | -3.67 | -4.43 | 6 | 1.54 | 30.9

Details | drug sensitivity score
IMC-1 (IL-2 20 ng/mL) [6] | 0
[5] | 3.05
[7] | 3.47
[8] | 1.58

CN(C)C(=O)c1cc2cnc(Nc3ccc(N4CCNCC4)cn3)nc2n1C1CCCC1 [NVP-LEE011] (max concentration tested 10000 nM)
percent inhibition of viability [%]
Details | DERL-7 (IL-2 2.5 ng/mL) [9] | KAI3 (IL-2 2.5 ng/mL) [10] | KHYG-1 (IL-2 2.5 ng/mL) [11] | NK-92 (IL-2 2.5 ng/mL) [12] | NK-YS (IL-2 2.5 ng/mL) [13] | NKL (IL-2 2.5 ng/mL) [14] | SNK-6 (IL-2 2.5 ng/mL) [15] | YT (IL-2 2.5 ng/mL) [16] | [17] | [18]
1 nM | -3.18 | -3.87 | -4.23 | -9.54 | -2.35 | -12.3 | -8.9 | -3.41 | 4.32 | 7.64
10 nM | 4.13 | 1.07 | 0.91 | -16.1 | -0.02 | -11.2 | 3.64 | -2.71 | 8.46 | 12.1
100 nM | 1.76 | -4.85 | -1.06 | -4.22 | 5.18 | -15 | -2.64 | -0.92 | 8.7 | 17.7
1000 nM | 11.2 | 4.66 | 37.5 | 15.8 | 22.1 | -6.48 | 12.5 | 9.6 | 6.05 | 14.8
10000 nM | 41.6 | 29.2 | 81.3 | 20.8 | 48 | 47.9 | 19.8 | 42.3 | 51.8 | 51.6

Details | drug sensitivity score
DERL-7 (IL-2 2.5 ng/mL) [19] | 3.81
KAI3 (IL-2 2.5 ng/mL) [20] | 2
KHYG-1 (IL-2 2.5 ng/mL) [21] | 9.33
NK-92 (IL-2 2.5 ng/mL) [22] | 2.18
NK-YS (IL-2 2.5 ng/mL) [23] | 4.9
NKL (IL-2 2.5 ng/mL) [24] | 2.07
SNK-6 (IL-2 2.5 ng/mL) [25] | 1.78
YT (IL-2 2.5 ng/mL) [26] | 3.67
[27] | 3.77
[28] | 6.2

Oc1ncc(N(CCCl)CCCl)c(O)n1 [Uramustine] (max concentration tested 10000 nM)
percent inhibition of viability [%]
Details | 1 nM | 10 nM | 100 nM | 1000 nM | 10000 nM
IMC-1 (IL-2 20 ng/mL) [2] | -9.69 | 0.32 | 0.64 | 0.1 | 6.18
[1] | -9.68 | -7.07 | -4 | 3.8 | 14.6
[3] | -0.88 | 5.22 | 7.92 | 6.65 | 14.2
[4] | -4.89 | 6.36 | 6.72 | 4.62 | 8.5

Details | drug sensitivity score
IMC-1 (IL-2 20 ng/mL) [6] | 0
[5] | 0.53
[7] | 0.26
[8] | 0

CC1(C)CCC(CN2CCN(c3ccc(C(=O)NS(=O)(=O)c4ccc(NCC5CCOCC5)c([N+](=O)[O-])c4)c(Oc4cnc5[nH]ccc5c4)c3)CC2)=C(c2ccc(Cl)cc2)C1 [Venetoclax] (max concentration tested 1000 nM)
percent inhibition of viability [%]
Details | 0.1 nM | 1 nM | 10 nM | 100 nM | 1000 nM
IMC-1 (IL-2 20 ng/mL) [2] | -3.1 | 2.12 | -1.24 | -0.5 | 5.01
[1] | 3.87 | -7.3 | -4.26 | -4.09 | 18.9
[3] | -15.6 | -3.12 | 0.73 | 7.62 | 31.3
[4] | -10.2 | -7.52 | -5.3 | 1.76 | 14.7

Details | drug sensitivity score
IMC-1 (IL-2 20 ng/mL) [6] | 0
[5] | 0.35
[7] | 2.56
[8] | 0.37

CC(=O)N(O)CCCCCNC(=O)CCC(=O)N(O)CCCCCNC(=O)CCC(=O)N(O)CCCCCN [Deferoxamine] (max concentration tested 10000 nM)
percent inhibition of viability [%]
Details | 1 nM | 10 nM | 100 nM | 1000 nM | 10000 nM
IMC-1 (IL-2 20 ng/mL) [2] | -6.25 | -3.2 | -4.14 | -0.7 | 97.2
[1] | -3.82 | -8.67 | -5.64 | 22.8 | 86.1
[3] | -2.8 | 5.46 | 3.49 | 11.1 | 42.7
[4] | -1.79 | 6.03 | 10.4 | 16.1 | 53.2

Details | drug sensitivity score
IMC-1 (IL-2 20 ng/mL) [6] | 5.37
[5] | 8.23
[7] | 3.84
[8] | 4.59

O=C(O)C(=O)O.[NH-][C@@H]1CCCC[C@H]1[NH-].[Pt+2] [Oxaliplatin] (max concentration tested 100000 nM)
percent inhibition of viability [%]
Details | 10 nM | 100 nM | 1000 nM | 10000 nM | 100000 nM
IMC-1 (IL-2 20 ng/mL) [2] | -0.91 | 5.5 | 6.16 | 51.1 | 101
[1] | 0.69 | 4.04 | 21.3 | 86.9 | 101
[3] | -2.45 | -3.26 | 15.2 | 44.2 | 93.1
[4] | -8.94 | -0.68 | 20.4 | 44 | 97.6

Details | drug sensitivity score
IMC-1 (IL-2 20 ng/mL) [6] | 11.6
[5] | 18.5
[7] | 10.7
[8] | 11.3
